Five compounds from patent publication US10894817B2, “Fatty acid modified urocortin-2 analogs for the treatment of diabetes and chronic kidney disease” (priority 2016, dated 2021) can be followed below.

Starred links: 1 amine or outer side, 2 acyl side, 3 side chain; linkers in the order of their positions; H or OH if unused. Residues, ends and D or L forms follow the SMILES beside them. Groups on a side chain read outwards from the residue. *: point of attachment. γGlu = O=C(O)[C@H](CCC(=O)[*:2])N[*:1]; Palmitoyl = CCCCCCCCCCCCCCCC(=O)*

Usually EC50 stands for the concentration needed to bring the measured effect to its halfway point.

For the assay, the target named is T1, human CRHR2b (Homo sapiens, UniProt Q13324).
T1 construct: expressed in transfected cells; host or cells: Chinese Hamster Ovary (CHO) cells, transient transfection
T1 sequence (Q13324 1-438 isoform Q13324-2): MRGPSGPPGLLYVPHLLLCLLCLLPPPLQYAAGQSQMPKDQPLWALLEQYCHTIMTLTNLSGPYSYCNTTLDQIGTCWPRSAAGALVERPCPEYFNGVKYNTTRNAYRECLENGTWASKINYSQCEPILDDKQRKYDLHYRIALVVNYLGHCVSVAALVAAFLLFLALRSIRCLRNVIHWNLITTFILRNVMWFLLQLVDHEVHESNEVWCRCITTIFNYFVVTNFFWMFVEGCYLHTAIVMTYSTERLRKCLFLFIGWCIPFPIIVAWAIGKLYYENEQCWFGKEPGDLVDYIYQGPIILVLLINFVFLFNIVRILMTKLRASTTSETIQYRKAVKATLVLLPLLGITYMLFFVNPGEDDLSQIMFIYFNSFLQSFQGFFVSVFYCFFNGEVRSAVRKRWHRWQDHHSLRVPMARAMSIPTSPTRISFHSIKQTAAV
Nature of the assay: human CRHR2b cell-based cAMP assay. Conditions: cAMP assay; Table 26, compounds of Example 9; read-out: hCRHR2b Average EC50. On the procedure:
CRHR agonistic activity is measured in a cell-based cAMP assay. Serial dilutions of the test peptides are made in assay buffer containing Hank's Balanced Salt Solution (HBSS, without phenol red) supplemented with 20 mM HEPES and 0.05% lactalbumin enzymatic hydrolysate (LAH) (“assay buffer”). […] A one to three dilution of the test peptides is used in both assays. Receptor over-expressing Chinese Hamster Ovary (CHO) cell line is used for the human CRHR2b assay. […] AF011406.1). Forty-eight hours after the transfection, the cells are centrifuged to remove the culture media and resuspended in fetal bovine serum containing 5% DMSO. They are cryofrozen and stored in vials in liquid nitrogen (20×10^6 cells/ml/vial). On the day of the assay, cells are thawed and resuspended in cold 30 ml culture media supplemented with 20 mM HEPES. The cells are then centrifuged to remove the media and washed once with HBSS supplemented with 20 mM HEPES. Finally, following the last centrifugation, the cells are resuspended in assay buffer. Thirty-thousand cells are used in the human CRHR2b assay for each treatment. The cells are dispensed into Costar 96-well black polystyrene half area EIA/RIA plates (Corning Incorporated, Corning, N.Y.) followed by the addition of the diluted peptides, each at a volume of 20 μL. The agonist induced cAMP levels are detected using a HTRF cAMP Dynamic 2 kit (CisBio, Bedford, Mass.). After incubation at 37° C. for 30 min, the assay is stopped by cell lysis via the addition of 20 μL of d2-labeled cAMP and followed by 20 μL of cryptate-labeled anti-cAMP antibody, as described by the manufacturer. Cellular cAMP (as a result of agonist stimulation) competes with the d2-labeled cAMP for binding to the antibody. HTRF detection is performed on an Envision plate reader (Perkin Elmer Life and Analytical Sciences, Waltham, Mass.) by measuring ratiometric emission at 620 and 665 nm after excitation at 320 nm. The data are converted to picomoles of cAMP using a standard curve obtained from the same assay performed with varying concentrations of unlabeled cAMP. […] The data are analyzed using a Curve Fitting Tool to calculate ED50. Numeric values shown below in Table 1 represent the mean of multiple runs (number of runs shown in parentheses) following the mean value±SEM.
For orientation: cAMP levels reflect the balance of adenylyl cyclase and phosphodiesterase activity.
`CCCCCCCCCCCCCCCC(=O)N[C@@H](CCC(=O)NCCCC[C@H](NC(=O)[C@H](CCCCN)NC(=O)[C@H](CCC(=O)O)NC(=O)[C@H](CCC(N)=O)NC(=O)[C@H](CCC(=O)O)NC(=O)[C@H](CC(C)C)NC(=O)[C@H](CC(C)C)NC(=O)[C@@H](NC(=O)[C@H](CCC(N)=O)NC(=O)[C@H](CC(C)C)NC(=O)[C@H](CC(C)C)NC(=O)CNC(=O)[C@@H](NC(=O)[C@@H]1CCCN1C(=O)[C@@H](NC(=O)[C@H](CC(=O)O)NC(=O)[C@H](CC(C)C)NC(=O)[C@H](CO)NC(=O)[C@H](CC(C)C)NC(=O)[C@@H](NC(=O)[C@@H](N)[C@@H](C)CC)C(C)C)C(C)C)[C@@H](C)CC)[C@@H](C)CC)C(=O)N[C@@H](CCC(=O)O)C(=O)N[C@@H](CCCCN)C(=O)N[C@@H](CCC(=O)O)C(=O)N[C@@H](CCCCN)C(=O)N[C@@H](CCC(N)=O)C(=O)N[C@@H](CCC(N)=O)C(=O)N[C@@H](C)C(=O)N[C@H](C(=O)N[C@H](C(=O)N[C@@H](CC(N)=O)C(=O)N[C@@H](C)C(=O)N[C@@H](CCCNC(=N)N)C(=O)N[C@H](C(=O)N[C@@H](CC(C)C)C(=O)N[C@@H](C)C(=O)N[C@@H](CCCNC(=N)N)C(=O)N[C@H](C(N)=O)C(C)C)[C@@H](C)CC)[C@@H](C)O)[C@@H](C)O)C(=O)O` [Compound 26] (H-IVLSLDVPIGLLQILLEQEKK([γGlu-Palmitoyl])EKEKQQATTNARILARV-NH2): the EC50 came out at 0.0156 µM. Then `CCCCCCCCCCCCCCCC(=O)N[C@@H](CCC(=O)NCCCC[C@H](NC(=O)[C@H](CCC(N)=O)NC(=O)[C@H](CCCCN)NC(=O)[C@H](CCC(=O)O)NC(=O)[C@H](CCC(N)=O)NC(=O)[C@H](CCC(=O)O)NC(=O)[C@H](CC(C)C)NC(=O)[C@H](CC(C)C)NC(=O)[C@@H](NC(=O)[C@H](CCC(N)=O)NC(=O)[C@H](CC(C)C)NC(=O)[C@H](CC(C)C)NC(=O)CNC(=O)[C@@H](NC(=O)[C@@H]1CCCN1C(=O)[C@@H](NC(=O)[C@H](CC(=O)O)NC(=O)[C@H](CC(C)C)NC(=O)[C@H](CO)NC(=O)[C@H](CC(C)C)NC(=O)[C@@H](NC(=O)[C@@H](N)[C@@H](C)CC)C(C)C)C(C)C)[C@@H](C)CC)[C@@H](C)CC)C(=O)N[C@@H](CCCCN)C(=O)N[C@@H](CCC(=O)O)C(=O)N[C@@H](CCCCN)C(=O)N[C@@H](CCC(N)=O)C(=O)N[C@@H](CCC(N)=O)C(=O)N[C@@H](C)C(=O)N[C@H](C(=O)N[C@H](C(=O)N[C@@H](CC(N)=O)C(=O)N[C@@H](C)C(=O)N[C@@H](CCCNC(=N)N)C(=O)N[C@H](C(=O)N[C@@H](CC(C)C)C(=O)N[C@@H](C)C(=O)N[C@@H](CCCNC(=N)N)C(=O)N[C@H](C(N)=O)C(C)C)[C@@H](C)CC)[C@@H](C)O)[C@@H](C)O)C(=O)O` [Compound 27] (H-IVLSLDVPIGLLQILLEQEKQK([γGlu-Palmitoyl])KEKQQATTNARILARV-NH2), with 0.0315 µM; and `CCCCCCCCCCCCCCCC(=O)N[C@@H](CCC(=O)NCCCC[C@H](NC(=O)[C@H](CCC(=O)O)NC(=O)[C@H](CCC(N)=O)NC(=O)[C@H](CCCCN)NC(=O)[C@H](CCC(=O)O)NC(=O)[C@H](CCC(N)=O)NC(=O)[C@H](CCC(=O)O)NC(=O)[C@H](CC(C)C)NC(=O)[C@H](CC(C)C)NC(=O)[C@@H](NC(=O)[C@H](CCC(N)=O)NC(=O)[C@H](CC(C)C)NC(=O)[C@H](CC(C)C)NC(=O)CNC(=O)[C@@H](NC(=O)[C@@H]1CCCN1C(=O)[C@@H](NC(=O)[C@H](CC(=O)O)NC(=O)[C@H](CC(C)C)NC(=O)[C@H](CO)NC(=O)[C@H](CC(C)C)NC(=O)[C@@H](NC(=O)[C@@H](N)[C@@H](C)CC)C(C)C)C(C)C)[C@@H](C)CC)[C@@H](C)CC)C(=O)N[C@@H](CCC(=O)O)C(=O)N[C@@H](CCCCN)C(=O)N[C@@H](CCC(N)=O)C(=O)N[C@@H](CCC(N)=O)C(=O)N[C@@H](C)C(=O)N[C@H](C(=O)N[C@H](C(=O)N[C@@H](CC(N)=O)C(=O)N[C@@H](C)C(=O)N[C@@H](CCCNC(=N)N)C(=O)N[C@H](C(=O)N[C@@H](CC(C)C)C(=O)N[C@@H](C)C(=O)N[C@@H](CCCNC(=N)N)C(=O)N[C@H](C(N)=O)C(C)C)[C@@H](C)CC)[C@@H](C)O)[C@@H](C)O)C(=O)O` [Compound 28] (H-IVLSLDVPIGLLQILLEQEKQEK([γGlu-Palmitoyl])EKQQATTNARILARV-NH2), with 0.0832 µM; and `CCCCCCCCCCCCCCCC(=O)N[C@@H](CCC(=O)NCCCC[C@H](NC(=O)[C@H](CCCCN)NC(=O)[C@H](CCC(=O)O)NC(=O)[C@H](CCC(N)=O)NC(=O)[C@H](CCCCN)NC(=O)[C@H](CCC(=O)O)NC(=O)[C@H](CCC(N)=O)NC(=O)[C@H](CCC(=O)O)NC(=O)[C@H](CC(C)C)NC(=O)[C@H](CC(C)C)NC(=O)[C@@H](NC(=O)[C@H](CCC(N)=O)NC(=O)[C@H](CC(C)C)NC(=O)[C@H](CC(C)C)NC(=O)CNC(=O)[C@@H](NC(=O)[C@@H]1CCCN1C(=O)[C@@H](NC(=O)[C@H](CC(=O)O)NC(=O)[C@H](CC(C)C)NC(=O)[C@H](CO)NC(=O)[C@H](CC(C)C)NC(=O)[C@@H](NC(=O)[C@@H](N)[C@@H](C)CC)C(C)C)C(C)C)[C@@H](C)CC)[C@@H](C)CC)C(=O)N[C@@H](CCCCN)C(=O)N[C@@H](CCC(N)=O)C(=O)N[C@@H](CCC(N)=O)C(=O)N[C@@H](C)C(=O)N[C@H](C(=O)N[C@H](C(=O)N[C@@H](CC(N)=O)C(=O)N[C@@H](C)C(=O)N[C@@H](CCCNC(=N)N)C(=O)N[C@H](C(=O)N[C@@H](CC(C)C)C(=O)N[C@@H](C)C(=O)N[C@@H](CCCNC(=N)N)C(=O)N[C@H](C(N)=O)C(C)C)[C@@H](C)CC)[C@@H](C)O)[C@@H](C)O)C(=O)O` [Compound 29] (H-IVLSLDVPIGLLQILLEQEKQEKK([γGlu-Palmitoyl])KQQATTNARILARV-NH2), with 0.0647 µM. For `CCCCCCCCCCCCCCCC(=O)N[C@@H](CCC(=O)NCCCC[C@H](NC(=O)[C@H](CCC(=O)O)NC(=O)[C@H](CCCCN)NC(=O)[C@H](CCC(=O)O)NC(=O)[C@H](CCC(N)=O)NC(=O)[C@H](CCCCN)NC(=O)[C@H](CCC(=O)O)NC(=O)[C@H](CCC(N)=O)NC(=O)[C@H](CCC(=O)O)NC(=O)[C@H](CC(C)C)NC(=O)[C@H](CC(C)C)NC(=O)[C@@H](NC(=O)[C@H](CCC(N)=O)NC(=O)[C@H](CC(C)C)NC(=O)[C@H](CC(C)C)NC(=O)CNC(=O)[C@@H](NC(=O)[C@@H]1CCCN1C(=O)[C@@H](NC(=O)[C@H](CC(=O)O)NC(=O)[C@H](CC(C)C)NC(=O)[C@H](CO)NC(=O)[C@H](CC(C)C)NC(=O)[C@@H](NC(=O)[C@@H](N)[C@@H](C)CC)C(C)C)C(C)C)[C@@H](C)CC)[C@@H](C)CC)C(=O)N[C@@H](CCC(N)=O)C(=O)N[C@@H](CCC(N)=O)C(=O)N[C@@H](C)C(=O)N[C@H](C(=O)N[C@H](C(=O)N[C@@H](CC(N)=O)C(=O)N[C@@H](C)C(=O)N[C@@H](CCCNC(=N)N)C(=O)N[C@H](C(=O)N[C@@H](CC(C)C)C(=O)N[C@@H](C)C(=O)N[C@@H](CCCNC(=N)N)C(=O)N[C@H](C(N)=O)C(C)C)[C@@H](C)CC)[C@@H](C)O)[C@@H](C)O)C(=O)O` [Compound 30] (H-IVLSLDVPIGLLQILLEQEKQEKEK([γGlu-Palmitoyl])QQATTNARILARV-NH2), the EC50 stood at 0.0124 µM.
